biological target: T1, αIIbβ3 integrin (K562-αIIbβ3 cells) (Homo sapiens, UniProt P05106+P08514); assay: Cell binding assay on K562-αIIbβ3 cells (flow cytometry); details: K562-αIIbβ3 versus K562-αvβ3 cells
T1 construct: expressed in transfected cells; host or cells: K562 leukemia cells (from S. Blystone)
Procedure: K562 cells stably expressing αIIbβ3, αvβ3, or αvβ5 were obtained from S. Blystone and maintained in IMDM media (Gibco) containing 10% FBS and 1.0 mg/mL geneticin. For binding assays, 10^5 cells were suspended in IBB, and varying concentrations of AgRP peptides were added. After 3 hour incubation at 4° C., the cells were centrifuged, aspirated, and resuspended in ice-cold BPBS containing a 1:20 dilution of fluorescein-conjugated goat anti-His antibody (Bethyl) for […]. The cells were then centrifuged, aspirated, and stored as pellets on ice until analysis by flow cytometry using a BD FACS Caliber instrument Becton Dickinson. Binding data was analyzed with FlowJo (Treestar, Inc.) and data was fit to sigmoidal plots using Kaleidagraph (Synergy Software) to calculate equilibrium dissociation constants. Experiments were performed at least 3 times and data are presented as average values with standard deviations.
To determine the integrin binding affinities and specificities of the engineered AgRP peptides, direct binding assays were performed using K562 leukemia cells that have been transfected to stably express different integrin receptors See J. Cell Biol. 127(4) (1994). Cells were incubated in the presence of varying concentrations of AgRP peptides at 4° C., to minimize receptor internalization, followed by staining with a fluorescein-conjugated anti-hexahistidine antibody and analysis by flow cytometry. Equilibrium dissociation constants (KD values) were determined by plotting AgRP peptide concentration (log scale) versus normalized mean fluorescence intensity, then fitting the data to a sigmoidal curve.

T1 sequence (P08514 32-887 limits assumed): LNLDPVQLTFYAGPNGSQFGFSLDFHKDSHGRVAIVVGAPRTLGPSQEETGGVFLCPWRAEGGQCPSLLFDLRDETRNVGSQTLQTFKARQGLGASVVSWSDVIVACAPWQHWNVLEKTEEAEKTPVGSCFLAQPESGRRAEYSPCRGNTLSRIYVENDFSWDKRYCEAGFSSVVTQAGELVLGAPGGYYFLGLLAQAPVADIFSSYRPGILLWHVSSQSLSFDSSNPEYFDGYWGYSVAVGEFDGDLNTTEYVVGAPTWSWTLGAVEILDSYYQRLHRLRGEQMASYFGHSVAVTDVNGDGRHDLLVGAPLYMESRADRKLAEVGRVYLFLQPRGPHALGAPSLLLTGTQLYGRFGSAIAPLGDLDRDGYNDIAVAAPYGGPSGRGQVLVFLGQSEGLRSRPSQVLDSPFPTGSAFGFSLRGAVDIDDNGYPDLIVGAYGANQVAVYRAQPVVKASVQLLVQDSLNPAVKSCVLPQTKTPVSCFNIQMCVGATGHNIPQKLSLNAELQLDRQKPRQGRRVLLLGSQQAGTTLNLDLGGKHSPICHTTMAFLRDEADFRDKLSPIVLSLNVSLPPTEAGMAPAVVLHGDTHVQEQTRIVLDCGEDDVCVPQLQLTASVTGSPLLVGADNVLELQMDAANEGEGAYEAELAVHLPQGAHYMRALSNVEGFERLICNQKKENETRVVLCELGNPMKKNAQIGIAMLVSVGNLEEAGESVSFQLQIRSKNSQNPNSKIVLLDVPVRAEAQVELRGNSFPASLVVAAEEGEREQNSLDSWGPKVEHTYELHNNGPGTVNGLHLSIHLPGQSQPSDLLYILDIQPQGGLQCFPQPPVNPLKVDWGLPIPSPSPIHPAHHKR
T1 sequence (P08514 891-1039 partner limits assumed): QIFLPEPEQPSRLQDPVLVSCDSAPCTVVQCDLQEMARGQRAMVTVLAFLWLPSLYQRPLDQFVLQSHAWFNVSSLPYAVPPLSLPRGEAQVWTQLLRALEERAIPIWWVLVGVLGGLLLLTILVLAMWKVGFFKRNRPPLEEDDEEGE
T1 sequence (P05106 27-788): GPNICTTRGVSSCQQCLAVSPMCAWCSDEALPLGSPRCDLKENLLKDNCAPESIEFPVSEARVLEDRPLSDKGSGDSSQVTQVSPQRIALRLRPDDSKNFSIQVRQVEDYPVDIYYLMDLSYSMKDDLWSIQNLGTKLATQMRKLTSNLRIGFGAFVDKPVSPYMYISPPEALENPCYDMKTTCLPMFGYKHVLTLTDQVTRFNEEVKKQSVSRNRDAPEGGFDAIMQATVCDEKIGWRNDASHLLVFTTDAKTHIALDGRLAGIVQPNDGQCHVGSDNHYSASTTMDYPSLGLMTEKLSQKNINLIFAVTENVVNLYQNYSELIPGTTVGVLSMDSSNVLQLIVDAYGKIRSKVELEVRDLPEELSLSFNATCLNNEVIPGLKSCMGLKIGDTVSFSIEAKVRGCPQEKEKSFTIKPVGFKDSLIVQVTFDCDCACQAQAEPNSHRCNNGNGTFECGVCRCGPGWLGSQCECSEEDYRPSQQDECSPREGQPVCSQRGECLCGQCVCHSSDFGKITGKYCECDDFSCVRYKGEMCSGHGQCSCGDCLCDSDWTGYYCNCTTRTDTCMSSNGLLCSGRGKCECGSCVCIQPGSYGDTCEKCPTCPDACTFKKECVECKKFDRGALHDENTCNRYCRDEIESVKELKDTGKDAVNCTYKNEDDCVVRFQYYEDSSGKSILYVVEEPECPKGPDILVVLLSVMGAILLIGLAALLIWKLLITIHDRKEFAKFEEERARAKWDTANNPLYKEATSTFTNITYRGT

| SMILES | integrin binding specificity on K562 cell lines |
| --- | --- |
| CC(C)C[C@@H]1NC(=O)[C@@H]2CSSC[C@@H]3NC(=O)[C@H]([C@@H](C)O)NC(=O)[C@H](C)NC(=O)[C@H](C)NC(=O)[C@@H]4CCCN4C(=O)[C@H](CC(=O)O)NC(=O)[C@H](CSSC[C@H](NC(=O)CNC(=O)[C@H](CCCNC(=N)N)NC(=O)[C@@H]4CCCN4C(=O)[C@H](CCCCN)NC(=O)[C@H](CC(=O)O)NC(=O)[C@H](CC(=O)O)NC(=O)[C@H](CC(=O)O)NC(=O)[C@H](CC(=O)O)NC(=O)[C@H](CCCCN)NC(=O)[C@H](Cc4ccc(O)cc4)NC(=O)[C@H](CC(=O)O)NC(=O)[C@@H](NC(=O)[C@@H](N)Cc4ccc(O)cc4)C(C)C)C(=O)N[C@@H](C(C)C)C(=O)N[C@@H](CCCNC(=N)N)C(=O)N[C@@H](CC(C)C)C(=O)N[C@@H](Cc4c[nH]cn4)C(=O)N[C@@H](CCC(=O)O)C(=O)N[C@@H](CO)C(=O)N2)NC(=O)[C@H](CSSC[C@@H](C(=O)N[C@@H](CCCNC(=N)N)C(=O)N[C@H](C(=O)N[C@@H](CCCNC(=N)N)C(=O)N[C@@H](Cc2c[nH]cn2)C(=O)N[C@@H](Cc2c[nH]cn2)C(=O)N[C@@H](Cc2c[nH]cn2)C(=O)N[C@@H](Cc2c[nH]cn2)C(=O)N[C@@H](Cc2c[nH]cn2)C(=O)N[C@@H](Cc2c[nH]cn2)C(=O)O)[C@@H](C)O)NC(=O)[C@H](Cc2ccc(O)cc2)NC(=O)[C@@H]2CSSC[C@H](NC(=O)[C@H](Cc4ccc(O)cc4)NC3=O)C(=O)N[C@@H](CC(C)C)C(=O)N[C@@H](CCCCN)C(=O)N[C@@H](CCCNC(=N)N)C(=O)NCC(=O)N[C@@H](CC(=O)O)C(=O)N[C@@H](Cc3c[nH]c4ccccc34)C(=O)N[C@@H](CCCCN)C(=O)NCC(=O)N[C@@H](CCCCN)C(=O)N2)NC(=O)[C@@H]2CCCN2C(=O)[C@H](C(C)C)NC(=O)[C@H](CCC(N)=O)NC(=O)[C@H](CCC(N)=O)NC(=O)CNC1=O [Clone 2bA] | bound K562-αIIbβ3 cells only |
| CC(C)C[C@@H]1NC(=O)[C@@H]2CSSC[C@@H]3NC(=O)[C@H]([C@@H](C)O)NC(=O)[C@H](C)NC(=O)[C@H](C)NC(=O)[C@@H]4CCCN4C(=O)[C@H](CC(=O)O)NC(=O)[C@H](CSSC[C@H](NC(=O)CNC(=O)[C@H](CCCNC(=N)N)NC(=O)[C@@H]4CCCN4C(=O)[C@H](CCCCN)NC(=O)[C@H](CC(=O)O)NC(=O)[C@H](CC(=O)O)NC(=O)[C@H](CC(=O)O)NC(=O)[C@H](CC(=O)O)NC(=O)[C@H](CCCCN)NC(=O)[C@H](Cc4ccc(O)cc4)NC(=O)[C@H](CC(=O)O)NC(=O)[C@@H](NC(=O)[C@@H](N)Cc4ccc(O)cc4)C(C)C)C(=O)N[C@@H](C(C)C)C(=O)N[C@@H](CCCNC(=N)N)C(=O)N[C@@H](CC(C)C)C(=O)N[C@@H](Cc4c[nH]cn4)C(=O)N[C@@H](CCC(=O)O)C(=O)N[C@@H](CO)C(=O)N2)NC(=O)[C@H](CSSC[C@@H](C(=O)N[C@@H](CCCNC(=N)N)C(=O)N[C@H](C(=O)N[C@@H](CCCNC(=N)N)C(=O)N[C@@H](Cc2c[nH]cn2)C(=O)N[C@@H](Cc2c[nH]cn2)C(=O)N[C@@H](Cc2c[nH]cn2)C(=O)N[C@@H](Cc2c[nH]cn2)C(=O)N[C@@H](Cc2c[nH]cn2)C(=O)N[C@@H](Cc2c[nH]cn2)C(=O)O)[C@@H](C)O)NC(=O)[C@H](Cc2ccc(O)cc2)NC(=O)[C@@H]2CSSC[C@H](NC(=O)[C@H](Cc4ccc(O)cc4)NC3=O)C(=O)N[C@@H](CC(N)=O)C(=O)N[C@@H](CCCCN)C(=O)N[C@@H](CCCNC(=N)N)C(=O)NCC(=O)N[C@@H](CC(=O)O)C(=O)N[C@@H](Cc3c[nH]c4ccccc34)C(=O)N[C@@H](CCCNC(=N)N)C(=O)N[C@@H](CO)C(=O)N[C@@H](CCCCN)C(=O)N2)NC(=O)[C@@H]2CCCN2C(=O)[C@H](C(C)C)NC(=O)[C@H](CCC(N)=O)NC(=O)[C@H](CCC(N)=O)NC(=O)CNC1=O [Clone 2bJ] | bound K562-αIIbβ3 cells only |
| CC(C)C[C@@H]1NC(=O)[C@@H]2CSSC[C@@H]3NC(=O)[C@H]([C@@H](C)O)NC(=O)[C@H](C)NC(=O)[C@H](C)NC(=O)[C@@H]4CCCN4C(=O)[C@H](CC(=O)O)NC(=O)[C@H](CSSC[C@H](NC(=O)CNC(=O)[C@H](CCCNC(=N)N)NC(=O)[C@@H]4CCCN4C(=O)[C@H](CCCCN)NC(=O)[C@H](CC(=O)O)NC(=O)[C@H](CC(=O)O)NC(=O)[C@H](CC(=O)O)NC(=O)[C@H](CC(=O)O)NC(=O)[C@H](CCCCN)NC(=O)[C@H](Cc4ccc(O)cc4)NC(=O)[C@H](CC(=O)O)NC(=O)[C@@H](NC(=O)[C@@H](N)Cc4ccc(O)cc4)C(C)C)C(=O)N[C@@H](C(C)C)C(=O)N[C@@H](CCCNC(=N)N)C(=O)N[C@@H](CC(C)C)C(=O)N[C@@H](Cc4c[nH]cn4)C(=O)N[C@@H](CCC(=O)O)C(=O)N[C@@H](CO)C(=O)N2)NC(=O)[C@H](CSSC[C@@H](C(=O)N[C@@H](CCCNC(=N)N)C(=O)N[C@H](C(=O)N[C@@H](CCCNC(=N)N)C(=O)N[C@@H](Cc2c[nH]cn2)C(=O)N[C@@H](Cc2c[nH]cn2)C(=O)N[C@@H](Cc2c[nH]cn2)C(=O)N[C@@H](Cc2c[nH]cn2)C(=O)N[C@@H](Cc2c[nH]cn2)C(=O)N[C@@H](Cc2c[nH]cn2)C(=O)O)[C@@H](C)O)NC(=O)[C@H](Cc2ccc(O)cc2)NC(=O)[C@@H]2CSSC[C@H](NC(=O)[C@H](Cc4ccc(O)cc4)NC3=O)C(=O)N[C@@H](CCCCN)C(=O)N[C@@H](CCCCN)C(=O)N[C@@H](CCCNC(=N)N)C(=O)NCC(=O)N[C@@H](CC(=O)O)C(=O)N[C@@H](Cc3c[nH]c4ccccc34)C(=O)N[C@@H](CCCCN)C(=O)N[C@@H](CCC(=O)O)C(=O)N[C@@H](CCCNC(=N)N)C(=O)N2)NC(=O)[C@@H]2CCCN2C(=O)[C@H](C(C)C)NC(=O)[C@H](CCC(N)=O)NC(=O)[C@H](CCC(N)=O)NC(=O)CNC1=O [Clone 2bO] | bound K562-αIIbβ3 cells only |
